The subject of this assay is P815. The assay is described as follows: Antiproliferative activity against mouse P815 cells assessed as incorporation of [3H]thymidine after 18 hrs by liquid scintillation counting. The class given is functional, cell-based.

SMILES strings stand for the structures. Converted amounts (≈) assume the structure as drawn.

Turning to `Cc1cc(=O)c2c(O)cc3cc4c(c(O)c3c2o1)C(=O)C=C4` [EUPLECTIN], the IC50 was found to be 1.67 µg/mL (≈ 5.68 µM).

These data come from ChEMBL document CHEMBL1155665, “Euplectin and coneuplectin, new naphthopyrones from the lichen Flavoparmelia euplecta” (J Nat Prod, 2000).
